These results are taken from US11053218B2, “3-(1-oxoisoindolin-2-yl)piperidine-2,6-dione derivatives and uses thereof” (Novartis AG, priority 2017, dated 2021).

Read-outs that look alike come from different tables or passages of the source.

Holding throughout (format): cell-based
The target of one experiment is IKZF2 (Homo sapiens, UniProt Q96SW2+Q9UKS7). The experiment is described as follows: Prolabel quantification of IKZF2 protein levels in 293GT cells.
The target in another experiment is IKZF1 (Homo sapiens, UniProt Q13422+Q96SW2). The experiment is described as follows: Prolabel quantification of IKZF1 protein levels in 293GT cells. Conditions: Prolabel assay, read-out: IKZF1 EC50.
The next experiment concerns the target GSPT1 (Homo sapiens, UniProt P15170+Q96SW2). The experiment in a line: Prolabel quantification of GSPT1 protein levels in 293GT cells. Conditions: Prolabel assay, read-out: GSPT1 EC50. As for the experimental part:
The Prolabel system from DiscoverX was used to develop high-throughput and quantitative assays to measure changes in IKZF1, IKZF2 and GSPT1 protein levels in response to compounds. The prolabel tag was derived from the alpha fragment of beta galactosidase and has the following protein sequence: mssnslavvlqrrdwenpgvtqlnrlaahppfaswrnseeartdrpsqqlrslnge. The complementary fragment of beta-galactosidase (from DiscoverX), is added to the prolabel tag to form an active beta galactosidase enzyme whose activity can be precisely measured. In this way, the levels of a fusion protein with the prolabel tag can be quantified in cell lysates.
Lentiviral vectors, based on the Invitrogen pLenti6.2/V5 DEST backbone, were constructed that placed the prolabel tag upstream of IKZF1, IKZF2 or GSPT1 and expressed the fusion protein from a CMV promoter.
To ensure moderate and consistent expression of the prolabel fusion proteins across all cells in the population, stable cell lines were constructed from cells expressing a single copy of the construct. Lentivirus packaged with the constructs was made using the Virapower kit from Invitrogen.
The levels of prolabel tagged fusion proteins in compound treated cell lines were measured as follows:
Day 1, Cells were diluted to 1.0×10^6 cells/ml in normal growth medium. 17.5 μL of cells were plated in each well of a solid white 384 well plate. Plates were incubated overnight in a 37° C. tissue culture incubator.
Day 2, Serial dilutions of compounds were made in 384 well plates from 10 mM stocks. 15 μL of DMSO was added to each well of a 384 well plate. In the first column 15 μL of stock compound was added. The solution was mixed and 15 μL was transferred to the next column. This was repeated until 20 two-fold dilutions were prepared. 2.5 μL of diluted compounds were transferred into 60 μL of cell culture medium in another 384 well plate, and mixed well. 2.5 μL of this mixture was added to the plated cells. The final DMSO concentration was 0.5% and the highest concentration of compound was 50 μM. Plates were incubated overnight (e.g., about 14 h, 18 h, or 24 h) in a 37° C. tissue culture incubator.
Day 3, Plates were removed from the incubator and allowed to equilibrate at rt for 30 minutes. Prolabel substrate (DiscoverX PathHunter Prolabel Detection Kit, User manual: 93-0180) was added as described by the manufacturers protocols. Plates were incubated at rt for three hours and luminescence was read using an Envision reader (Perkin Elmer) Data was analyzed and visualized using the Spotfire software package.

Setting [1] is: 24 h, 10 μM, 24 h, 293GT cells; read-out: IKZF2 % protein reduction at 10 μM, 24 h.
[2] abbreviates: Prolabel assay, 293GT cells; read-out: IKZF2 EC50.

IKZF1, sequence (Q13422 whole entry): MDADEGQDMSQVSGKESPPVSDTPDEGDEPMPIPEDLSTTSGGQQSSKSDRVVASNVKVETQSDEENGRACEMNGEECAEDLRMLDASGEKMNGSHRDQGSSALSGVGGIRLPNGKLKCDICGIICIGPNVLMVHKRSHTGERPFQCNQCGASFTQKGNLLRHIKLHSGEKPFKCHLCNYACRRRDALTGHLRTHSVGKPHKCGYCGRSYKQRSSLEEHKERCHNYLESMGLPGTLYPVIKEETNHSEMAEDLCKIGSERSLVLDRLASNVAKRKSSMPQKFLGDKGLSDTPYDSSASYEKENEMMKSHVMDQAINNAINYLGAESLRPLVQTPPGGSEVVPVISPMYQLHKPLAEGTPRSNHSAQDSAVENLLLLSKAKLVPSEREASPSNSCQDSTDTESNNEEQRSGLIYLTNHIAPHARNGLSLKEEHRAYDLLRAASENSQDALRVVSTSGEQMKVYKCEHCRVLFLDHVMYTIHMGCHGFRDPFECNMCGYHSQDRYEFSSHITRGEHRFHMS
IKZF1, sequence (Q96SW2 whole entry): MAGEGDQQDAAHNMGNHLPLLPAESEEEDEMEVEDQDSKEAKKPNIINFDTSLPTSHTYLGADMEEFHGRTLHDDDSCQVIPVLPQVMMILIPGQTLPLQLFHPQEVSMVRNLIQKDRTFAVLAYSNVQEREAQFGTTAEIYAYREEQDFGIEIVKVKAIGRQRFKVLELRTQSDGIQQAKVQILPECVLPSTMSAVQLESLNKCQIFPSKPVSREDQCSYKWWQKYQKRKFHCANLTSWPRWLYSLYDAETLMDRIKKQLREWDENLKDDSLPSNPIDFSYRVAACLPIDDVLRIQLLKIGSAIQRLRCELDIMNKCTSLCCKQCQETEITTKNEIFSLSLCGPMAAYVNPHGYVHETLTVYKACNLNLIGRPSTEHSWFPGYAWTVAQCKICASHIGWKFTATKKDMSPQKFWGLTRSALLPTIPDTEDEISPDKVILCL
IKZF1, sequence (Q16531 whole entry partner): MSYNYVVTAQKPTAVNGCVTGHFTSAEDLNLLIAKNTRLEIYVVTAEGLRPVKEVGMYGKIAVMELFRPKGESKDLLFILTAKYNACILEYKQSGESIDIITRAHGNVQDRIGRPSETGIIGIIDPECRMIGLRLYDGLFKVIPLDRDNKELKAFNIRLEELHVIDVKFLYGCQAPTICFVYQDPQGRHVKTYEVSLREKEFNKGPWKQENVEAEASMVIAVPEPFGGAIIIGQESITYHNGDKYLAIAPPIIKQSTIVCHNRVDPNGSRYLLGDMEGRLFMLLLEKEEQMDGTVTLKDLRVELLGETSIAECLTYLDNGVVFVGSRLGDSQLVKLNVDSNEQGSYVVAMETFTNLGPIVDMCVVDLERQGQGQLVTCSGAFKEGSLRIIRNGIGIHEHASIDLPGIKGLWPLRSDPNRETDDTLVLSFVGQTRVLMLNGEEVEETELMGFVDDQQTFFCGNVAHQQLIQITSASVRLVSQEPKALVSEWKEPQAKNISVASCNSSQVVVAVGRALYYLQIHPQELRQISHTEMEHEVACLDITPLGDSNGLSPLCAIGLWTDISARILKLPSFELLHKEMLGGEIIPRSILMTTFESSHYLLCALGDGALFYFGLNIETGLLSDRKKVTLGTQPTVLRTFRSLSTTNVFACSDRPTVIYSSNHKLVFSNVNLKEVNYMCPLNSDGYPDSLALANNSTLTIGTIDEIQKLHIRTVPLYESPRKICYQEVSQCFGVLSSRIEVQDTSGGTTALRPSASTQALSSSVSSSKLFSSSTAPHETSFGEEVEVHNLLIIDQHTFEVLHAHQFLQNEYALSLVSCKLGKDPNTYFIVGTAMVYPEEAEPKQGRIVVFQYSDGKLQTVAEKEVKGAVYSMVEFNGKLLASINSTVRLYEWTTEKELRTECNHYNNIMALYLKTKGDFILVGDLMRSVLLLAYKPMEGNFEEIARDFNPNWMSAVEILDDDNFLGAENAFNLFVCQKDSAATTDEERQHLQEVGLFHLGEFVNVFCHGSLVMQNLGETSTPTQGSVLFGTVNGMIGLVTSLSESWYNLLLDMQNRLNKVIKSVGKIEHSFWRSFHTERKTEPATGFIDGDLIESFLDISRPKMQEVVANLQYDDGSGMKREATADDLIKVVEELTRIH
IKZF2, sequence (Q9UKS7 whole entry): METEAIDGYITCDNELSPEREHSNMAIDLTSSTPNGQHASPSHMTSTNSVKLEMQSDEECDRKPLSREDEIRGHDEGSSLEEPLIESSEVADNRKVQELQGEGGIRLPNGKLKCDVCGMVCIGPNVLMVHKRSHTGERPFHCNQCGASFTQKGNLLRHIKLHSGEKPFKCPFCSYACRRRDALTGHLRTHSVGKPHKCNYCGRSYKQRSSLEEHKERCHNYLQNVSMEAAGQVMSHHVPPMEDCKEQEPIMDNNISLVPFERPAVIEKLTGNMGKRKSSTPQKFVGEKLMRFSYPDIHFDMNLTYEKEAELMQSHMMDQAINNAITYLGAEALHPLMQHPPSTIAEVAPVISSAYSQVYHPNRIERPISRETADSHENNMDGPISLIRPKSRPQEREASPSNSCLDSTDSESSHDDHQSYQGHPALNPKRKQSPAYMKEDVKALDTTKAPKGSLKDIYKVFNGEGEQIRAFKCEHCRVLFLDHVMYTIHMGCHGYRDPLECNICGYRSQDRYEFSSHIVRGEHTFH
IKZF2, sequence (Q96SW2 whole entry): as the sequence (Q96SW2 whole entry) above
IKZF2, sequence (Q16531 whole entry partner): as the sequence (Q16531 whole entry partner) above
GSPT1, sequence (P15170 whole entry, the tested form may be a part): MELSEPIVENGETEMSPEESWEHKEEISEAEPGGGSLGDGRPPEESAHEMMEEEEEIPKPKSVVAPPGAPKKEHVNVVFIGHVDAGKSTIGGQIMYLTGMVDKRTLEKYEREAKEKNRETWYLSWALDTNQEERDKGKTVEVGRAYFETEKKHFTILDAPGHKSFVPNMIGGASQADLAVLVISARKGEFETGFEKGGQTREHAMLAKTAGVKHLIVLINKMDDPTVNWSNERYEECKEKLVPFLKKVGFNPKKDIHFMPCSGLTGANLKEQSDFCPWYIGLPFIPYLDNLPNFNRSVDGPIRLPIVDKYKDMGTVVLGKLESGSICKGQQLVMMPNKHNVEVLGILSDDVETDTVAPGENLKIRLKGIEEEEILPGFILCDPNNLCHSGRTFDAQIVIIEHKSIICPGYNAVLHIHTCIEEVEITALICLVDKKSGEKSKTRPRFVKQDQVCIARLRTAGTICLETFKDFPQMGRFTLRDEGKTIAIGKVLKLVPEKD
GSPT1, sequence (Q96SW2 whole entry, the tested form may be a part): as the sequence (Q96SW2 whole entry) above
GSPT1, sequence (Q16531 whole entry partner, the tested form may be a part): as the sequence (Q16531 whole entry partner) above

`CCC(C)(C)c1ccc(CN2CCC(c3ccc4c(c3)CN(C3CCC(=O)NC3=O)C4=O)CC2)cc1` (stereo not drawn) [Compound I-89, 3-(1-oxo-5-(1-(4-(tert-pentyl)benzyl)piperidin-4-yl)isoindolin-2-yl)piperidine-2,6-dione]: at IKZF2 (setting [1]), the inhibition at 10 µM turned out to be 70%. Further, the DC50 is 0.033 µM at IKZF2 (setting [2]), above 30 µM at IKZF1 and above 30 µM on GSPT1.

In the case of `O=C1CCC(N2Cc3cc(C4CCN(Cc5ccc6cn[nH]c6c5)CC4)ccc3C2=O)C(=O)N1` (stereo not drawn) [Compound I-137, 3-(5-(1-((1H-indazol-6-yl)methyl)piperidin-4-yl)-1-oxoisoindolin-2-yl)piperidine-2,6-dione], on IKZF2 (setting [1]), the inhibition at 10 µM is 80%. The values for the DC50 on IKZF2 (setting [2]), at IKZF1 and on GSPT1 were 0.009 µM, above 30 µM and above 30 µM, respectively.

On to `N#Cc1cccc(CN2CCC(c3ccc4c(c3)CN(C3CCC(=O)NC3=O)C4=O)CC2)c1` (stereo not drawn) [Compound I-36, 3-((4-(2-(2,6-dioxopiperidin-3-yl)-1-oxoisoindolin-5-yl)piperidin-1-yl)methyl)benzonitrile], for which, on IKZF2 (setting [1]), the inhibition at 10 µM turned out to be 75%. For the same compound, the DC50 on IKZF2 (setting [2]) was 0.017 µM; on IKZF1, above 30 µM; on GSPT1, above 30 µM.

For `O=C1CCC(N2Cc3cc(C4CCN(CC5CCCCC5)CC4)ccc3C2=O)C(=O)N1` (stereo not drawn) [Compound I-11, 3-(5-(1-(cyclohexylmethyl)piperidin-4-yl)-1-oxoisoindolin-2-yl)piperidine-2,6-dione], on IKZF2 (setting [1]), the inhibition at 10 µM came to 65%. The DC50 is 0.013 µM on IKZF2 (setting [2]), above 50 µM at IKZF1 and above 50 µM at GSPT1.

Regarding `O=C1CCC(N2Cc3cc(C4CCN(Cc5ccc6scnc6c5)CC4)ccc3C2=O)C(=O)N1` (stereo not drawn) [Compound I-130, 3-(5-(1-(benzo[d]thiazol-5-ylmethyl)piperidin-4-yl)-1-oxoisoindolin-2-yl)piperidine-2,6-dione], the inhibition at 10 µM at IKZF2 (setting [1]) was found to be 80%. The DC50 was 0.008 µM on IKZF2 (setting [2]), above 30 µM on IKZF1 and above 30 µM on GSPT1.

On to `O=C1CCC(N2Cc3cc(C4CCNCC4)ccc3C2=O)C(=O)N1` (stereo not drawn) [Compound I-155, 3-(1-oxo-5-(piperidin-4-yl)isoindolin-2-yl)piperidine-2,6-dione], for which the inhibition at 10 µM at IKZF2 (setting [1]) worked out at 40%. The DC50 at IKZF1 and at GSPT1 was above 50 µM throughout.

As for `O=C1CCC(N2Cc3cc(C4CCN(Cc5nc6ccsc6c(=O)[nH]5)CC4)ccc3C2=O)C(=O)N1` (stereo not drawn) [Compound I-213, 3-(1-oxo-5-(1-((4-oxo-3,4-dihydrothieno[3,2-d]pyrimidin-2-yl)methyl)piperidin-4-yl)isoindolin-2-yl)piperidine-2,6-dione], the inhibition at 10 µM at IKZF2 (setting [1]) was 70%. In addition, the figures for the DC50 at IKZF2 (setting [2]), on IKZF1 and on GSPT1 were 0.045 µM, above 30 µM and above 30 µM, respectively.

In the case of `O=C1CCC(N2Cc3cc(C4CCN(Cc5ccc(Cl)cc5Cl)CC4)ccc3C2=O)C(=O)N1` (stereo not drawn) [Compound I-113, 3-(5-(1-(2,4-dichlorobenzyl)piperidin-4-yl)-1-oxoisoindolin-2-yl)piperidine-2,6-dione], at IKZF2 (setting [1]), the inhibition at 10 µM turned out to be 50%. The results for the DC50 at IKZF2 (setting [2]), on IKZF1 and on GSPT1 were 0.015 µM, above 30 µM and above 30 µM, respectively.

In the case of `O=C1CCC(N2Cc3cc(C4CCN(Cc5ccc(C(F)F)cc5)CC4)ccc3C2=O)C(=O)N1` (stereo not drawn) [Compound I-70, 3-(5-(1-(4-(difluoromethyl)benzyl)piperidin-4-yl)-1-oxoisoindolin-2-yl)piperidine-2,6-dione], the inhibition at 10 µM at IKZF2 (setting [1]) came to 75%. Besides, the DC50 at IKZF2 (setting [2]) was 0.012 µM; at IKZF1, above 30 µM; at GSPT1 it was above 30 µM.

As to `N#Cc1ccc(CN2CCC(c3ccc4c(c3)CN(C3CCC(=O)NC3=O)C4=O)CC2)cc1` (stereo not drawn) [Compound I-31, 3-(5-(1-(4-nitrilebenzyl)piperidin-4-yl)-1-oxoisoindolin-2-yl)piperidine-2,6-dione], the inhibition at 10 µM at IKZF2 (10 μM, 24 h, 293GT cells; read-out: IKZF2 % protein reduction at 10 μM, 24 h) amounted to 60%. For the same compound, the DC50 at IKZF2 (setting [2]) is 0.004 µM; on IKZF1 it was above 50 µM; at GSPT1, above 50 µM.

As for `O=C1CCC(N2Cc3cc(C4CCN(Cc5cc6ccccc6[nH]5)CC4)ccc3C2=O)C(=O)N1` (stereo not drawn) [Compound I-136, 3-(5-(1-((1H-indo1-2-yl)methyl)piperidin-4-yl)-1-oxoisoindolin-2-yl)piperidine-2,6-dione], on IKZF2 (setting [1]), the inhibition at 10 µM was determined as 80%. The “IKZF2 protein levels as compared to the control (DMSO)” value at IKZF2 (Prolabel assay in HEK293GT cells, bar graph) is recorded as “decreased”. Moreover, the DC50 on IKZF2 (setting [2]) was 0.012 µM; at IKZF1 it was above 30 µM; on GSPT1, above 30 µM.

Regarding `O=C1CCC(N2Cc3cc([C@@H]4CCCNCC4)ccc3C2=O)C(=O)N1` (single isomer, unassigned) [Compound I-166, 3-(5-(azepan-4-yl)-1-oxoisoindolin-2-yl)piperidine-2,6-dione], the inhibition at 10 µM at IKZF2 (setting [1]) was 25%. For the same compound, the DC50 on IKZF1 and on GSPT1 was above 50 µM in each case.

For the compound `CC(C)(C)c1cccc(CN2CCC(c3ccc4c(c3)CN(C3CCC(=O)NC3=O)C4=O)CC2)c1` (stereo not drawn) [Compound I-107, 3-(5-(1-(3-(tert-butyl)benzyl)piperidin-4-yl)-1-oxoisoindolin-2-yl)piperidine-2,6-dione], at IKZF2 (setting [1]), the inhibition at 10 µM worked out at 80%. Moreover, the DC50 at IKZF2 (setting [2]) is 0.023 µM; on IKZF1 it was 0.14 µM; on GSPT1, above 30 µM.

As for `O=C1CCC(N2Cc3cc(C4CCN(Cc5ccnc6ccccc56)CC4)ccc3C2=O)C(=O)N1` (stereo not drawn) [Compound I-214, 3-(1-oxo-5-(1-(quinolin-4-ylmethyl)piperidin-4-yl)isoindolin-2-yl)piperidine-2,6-dione], the inhibition at 10 µM at IKZF2 (setting [1]) was 70%. Moreover, the DC50 is 0.019 µM at IKZF2 (setting [2]), above 50 µM at IKZF1 and above 30 µM at GSPT1.

`O=C1CCC(N2Cc3cc(C4CCN(Cc5ccc6c(c5)OCCCO6)CC4)ccc3C2=O)C(=O)N1` (stereo not drawn) [Compound I-88, 3-(5-(1-((3,4-dihydro-2H-benzo[b][1,4]dioxepin-7-yl)methyl)piperidin-4-yl)-1-oxoisoindolin-2-yl)piperidine-2,6-dione]: the inhibition at 10 µM at IKZF2 (setting [1]) is 70%. The DC50 at IKZF2 (setting [2]) is 0.005 µM; at IKZF1, above 30 µM; on GSPT1, above 30 µM.

As for `O=C1CCC(N2Cc3cc(C4CCN(Cc5cc6n(n5)CCCC6)CC4)ccc3C2=O)C(=O)N1` (stereo not drawn) [Compound I-135, 3-(1-oxo-5-(1-((4,5,6,7-tetrahydropyrazolo[1,5-a]pyridin-2-yl)methyl)piperidin-4-yl)isoindolin-2-yl)piperidine-2,6-dione], at IKZF2 (setting [1]), the inhibition at 10 µM worked out at 60%. Moreover, the DC50 at IKZF2 (setting [2]) was 0.057 µM; on IKZF1, above 30 µM; at GSPT1, above 30 µM.

As to `O=C1CCC(N2Cc3cc(C4CCN(Cc5ccc(-n6cccn6)cc5)CC4)ccc3C2=O)C(=O)N1` (stereo not drawn) [Compound I-91, 3-(5-(1-(4-(1H-pyrazol-1-yl)benzyl)piperidin-4-yl)-1-oxoisoindolin-2-yl)piperidine-2,6-dione], on IKZF2 (setting [1]), the inhibition at 10 µM is 75%. For the same compound, the DC50 on IKZF2 (setting [2]) is 0.018 µM; on IKZF1, above 30 µM; at GSPT1 it was above 30 µM.

Regarding `NC(=O)c1ccc(CN2CCC(c3ccc4c(c3)CN(C3CCC(=O)NC3=O)C4=O)CC2)cc1` (stereo not drawn) [Compound I-71, 4-((4-(2-(2,6-dioxopiperidin-3-yl)-1-oxoisoindolin-5-yl)piperidin-1-yl)methyl)benzamide], on IKZF2 (setting [1]), the inhibition at 10 µM was 80%. Also, the DC50 was 0.027 µM on IKZF2 (setting [2]), above 30 µM on IKZF1 and above 30 µM on GSPT1.

For the compound `O=C1CCC(N2Cc3cc(C4CCN(Cc5cccnc5)CC4)ccc3C2=O)C(=O)N1` (stereo not drawn) [Compound I-59, 3-(1-oxo-5-(1-(pyridin-3-ylmethyl)piperidin-4-yl)isoindolin-2-yl)piperidine-2,6-dione], at IKZF2 (setting [1]), the inhibition at 10 µM was found to be 80%. For the same compound, the DC50 was 0.031 µM on IKZF2 (setting [2]), above 30 µM at IKZF1 and above 30 µM on GSPT1.

`O=C1CCC(N2Cc3cc(C4CCCNCC4)ccc3C2=O)C(=O)N1` (single isomer, unassigned) [Compound I-167, 3-(5-(azepan-4-yl)-1-oxoisoindolin-2-yl)piperidine-2,6-dione]: at IKZF2 (setting [1]), the inhibition at 10 µM was 25%. For the same compound, the DC50 at IKZF1 and on GSPT1 was above 50 µM each time.
